Values of other authors in patent US12274695B2, “Pharmaceutical drug therapy for autism” (priority 2020, dated 2025).
Read-outs that look alike come from different tables or passages of the source.

Experiments:
[1] = test system: monkey model of schizophrenia
[2] = test system: fear conditioning; conditions: preclinical, after fear conditioning
[3] = in vivo
[4] = test system: mouse model of Alzheimer's disease (AD)
[5] = test system: humans; conditions: in humans
[6] = test system: BTBR T+Itpr3 tf/J (BTBR) mice
[7] = test system: adults with ASD; conditions: 7 mg transdermal nicotine, 1 week

| blood-brain barrier crossing [3] | plasma half-life compared with nicotine [3] | SMILES | working memory [1] | extinction of fear memory and anxiety [2] | working memory [4] | addictive or cardiovascular effects [5] | repetitive behaviors ([6]; BTBR mice) | social deficits ([6]; BTBR mice) | hotplate latency compared to vehicle ([6]; BTBR mice, higher doses) | hotplate latency compared to vehicle ([6]; BTBR mice, lower doses) | antinociceptive effects to noxious heat ([6]; control mice) | cold plate resistance ([6]; mice with Autism mutations, four-week nicotine treatment) | Sleep ratings [7] | Aberrant Behavior Checklist-Irritability (ABC-I) subscale change from baseline ([7]; compared to placebo, five subjects) | tolerability ([7]; eight subjects) |
| --- | --- | --- | --- | --- | --- | --- | --- | --- | --- | --- | --- | --- | --- | --- | --- |
| crosses the blood-brain barrier | longer | CN1C(=O)CC[C@H]1c1cccnc1 [Cotinine] | improved | facilitated | improved | no addictive or cardiovascular effects |  |  |  |  |  |  |  |  |  |
|  |  | CN1CCCC1c1cccnc1 (stereo not drawn) [nicotine, Nicotine] |  |  |  |  | decrease repetitive behaviors | improve social deficits | decreased | increased | only at the high dose | increase | improved | improved | tolerated nicotine treatment well |
